Data as given in US9708314B2, “Heterocyclic amide compound” (NISSAN CHEMICAL INDUSTRIES, LTD., priority 2013, dated 2017).

Columns and labels:
Amaranthus retroflexus = test: Test Example 4: herbicidal effect by application to foliage (diluvial soil, plastic box); type: in vivo; settings: for N (Amaranthus retroflexus) herbicidal effect: application herbicide amount 320 g/ha; for N (Amaranthus retroflexus) herbicidal effect grade: foliage application
In short: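 Emulsion-formulated compound, diluted to a predetermined g/ha dose, applied by small sprayer to leaves and stems of 14-day-old seedlings grown in sterilized diluvial soil. Effect rated on 0–5 herbicidal-ratio scale three weeks on.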

SMILES	N (Amaranthus retroflexus) herbicidal effect (Amaranthus retroflexus; application to foliage)	further results
Cc1nnc(NC(=O)c2ccc(C(F)(F)F)n3c(COCC(F)(F)F)nnc23)o1 [1-020]	4 (Herbicidal ratio of 70% or more and less than 90%)	–
Cc1nnc(NC(=O)c2ccc(C(F)(F)F)n3c(-c4ccccc4)nnc23)o1 [1-012]	3 (Herbicidal ratio of 40% or more and less than 70%)	–
Cc1nnc(NC(=O)c2ccc(C(F)F)n3c(C(C)C)nnc23)o1 [1-053]	4 (Herbicidal ratio of 70% or more and less than 90%)	–
CCCc1nnc2c(C(=O)Nc3nnc(C)o3)ccc(C(F)(F)F)n12 [1-024]	5 (Herbicidal ratio of 90% or more (almost completely withered))	–
COc1ccccc1-c1nnc2c(C(=O)Nc3nnc(C)o3)ccc(C(F)(F)F)n12 [1-047]	5 (Herbicidal ratio of 90% or more (almost completely withered))	–
CSc1nnc2c(C(=O)Nc3nnc(C)o3)ccc(C(F)(F)F)n12 [1-018, N-(5-Methyl-1,3,4-oxadiazol-2-yl)-3-(methylthio)-5-(trifluoromethyl)-[1,2,4]triazol o[4,3-a]pyridine-8-carboxamide]	4 (Herbicidal ratio of 70% or more and less than 90%)	melting point: 230 to 233 °C
Cc1nnc(NC(=O)c2ccc(C(F)(F)F)n3c(CC(=O)O)nnc23)o1 [1-048]	4 (Herbicidal ratio of 70% or more and less than 90%)	–
Cc1nnc(NC(=O)c2ccc(C(F)(F)F)n3c(CSCC(F)(F)F)nnc23)o1 [1-031]	4 (Herbicidal ratio of 70% or more and less than 90%)	–
Cc1nnc(NC(=O)c2ccc(C(F)(F)F)n3c([S+]([O-])C(C)C)nnc23)o1 (centres unmarked) [1-035]	5 (Herbicidal ratio of 90% or more (almost completely withered))	–
COCCOCc1nnc2c(C(=O)Nc3nnc(C)o3)ccc(C(F)(F)F)n12 [1-019]	5 (Herbicidal ratio of 90% or more (almost completely withered))	–
Cc1nnc(NC(=O)c2ccc(C(F)(F)F)n3c(C[S+](C)[O-])nnc23)o1 (centres unmarked) [1-036]	5 (Herbicidal ratio of 90% or more (almost completely withered))	–
COCCc1nnc(NC(=O)c2ccc(C(F)(F)F)n3c(C(C)C)nnc23)o1 [1-052]	4 (Herbicidal ratio of 70% or more and less than 90%)	–
Cc1nnc(NC(=O)c2ccc(C(F)(F)F)n3c(C4CC4)nnc23)o1 [1-010]	5 (Herbicidal ratio of 90% or more (almost completely withered))	–
Cc1nnc(NC(=O)c2ccc(C(F)(F)F)n3c(S(C)(=O)=O)nnc23)o1 [1-040]	5 (Herbicidal ratio of 90% or more (almost completely withered))	–
Cc1cc(-c2nnc3c(C(=O)Nc4nnc(C)o4)ccc(C(F)(F)F)n23)no1 [1-022]	5 (Herbicidal ratio of 90% or more (almost completely withered))	–
Cc1nnc(NC(=O)c2ccc(C(F)(F)F)n3c(C4CCCC4)nnc23)o1 [1-026]	4 (Herbicidal ratio of 70% or more and less than 90%)	–
Cc1ccc(-c2nnc3c(C(=O)Nc4nnc(C)o4)ccc(C(F)(F)F)n23)cc1 [1-043]	5 (Herbicidal ratio of 90% or more (almost completely withered))	–
COc1cccc(-c2nnc3c(C(=O)Nc4nnc(C)o4)ccc(C(F)(F)F)n23)c1 [1-046]	5 (Herbicidal ratio of 90% or more (almost completely withered))	–
CC(C)c1nnc2c(C(=O)Nc3nnc(C4CC4)o3)ccc(C(F)(F)F)n12 [1-051]	3 (Herbicidal ratio of 40% or more and less than 70%)	–
CCC(CC)c1nnc2c(C(=O)Nc3nnc(C)o3)ccc(C(F)(F)F)n12 [1-011]	5 (Herbicidal ratio of 90% or more (almost completely withered))	–
Cc1nnc(NC(=O)c2ccc(C(F)(F)F)n3c(CC(=O)OC(C)C)nnc23)o1 [1-049]	5 (Herbicidal ratio of 90% or more (almost completely withered))	–
CCc1nnc(NC(=O)c2ccc(C(F)(F)F)n3c(C(C)C)nnc23)o1 [1-005]	3 (Herbicidal ratio of 40% or more and less than 70%)	–
Cc1nnc(NC(=O)c2ccc(C(F)(F)F)n3c(SC(C)C)nnc23)o1 [1-033]	5 (Herbicidal ratio of 90% or more (almost completely withered))	–

SMILES	N (Amaranthus retroflexus) herbicidal effect (Amaranthus retroflexus; application to foliage)	further results
Cc1nnc(NC(=O)c2ccc(C(F)(F)F)n3cnnc23)o1 [1-001]	3 (Herbicidal ratio of 40% or more and less than 70%)	–
Cc1nnc(NC(=O)c2ccc(C(F)(F)F)n3c(C)nnc23)o1 [1-002]	3 (Herbicidal ratio of 40% or more and less than 70%)	–
CCN(C)c1nnc2c(C(=O)Nc3nnnn3C)ccc(C(F)(F)F)n12 [2-088]	–	herbicidal effect, N (Amaranthus retroflexus) (Amaranthus retroflexus; application to foliage, 141 g/ha): 5 (Herbicidal ratio of 90% or more (almost completely withered))
CCOC(=O)Cc1nnc2c(C(=O)Nc3nnc(C)o3)ccc(C(F)(F)F)n12 [1-042]	4 (Herbicidal ratio of 70% or more and less than 90%)	–
CCSc1nnc2c(C(=O)Nc3nnc(C)o3)ccc(C(F)(F)F)n12 [1-032]	5 (Herbicidal ratio of 90% or more (almost completely withered))	–
CSCc1nnc2c(C(=O)Nc3nnc(C)o3)ccc(C(F)(F)F)n12 [1-030]	5 (Herbicidal ratio of 90% or more (almost completely withered))	–
Cc1nnc(NC(=O)c2ccc(C(F)(F)F)n3c(C[S+]([O-])CC(F)(F)F)nnc23)o1 (centres unmarked) [1-038]	5 (Herbicidal ratio of 90% or more (almost completely withered))	–
CCOCc1nnc2c(C(=O)Nc3nnc(C)o3)ccc(C(F)(F)F)n12 [1-027]	5 (Herbicidal ratio of 90% or more (almost completely withered))	–
CCC(C)c1nnc2c(C(=O)Nc3nnc(C)o3)ccc(C(F)(F)F)n12 (centres unmarked) [1-021]	5 (Herbicidal ratio of 90% or more (almost completely withered))	–
C=CCSc1nnc2c(C(=O)Nc3nnco3)ccc(C(F)(F)F)n12 [1-128]	–	N (Amaranthus retroflexus) herbicidal effect grade (Amaranthus retroflexus; Application herbicide amount 288 g/ha): 3 (Herbicidal ratio of 40% or more and less than 70%)
Cc1nnc(NC(=O)c2ccc(C(F)(F)F)n3c(-c4ccc(Cl)cc4)nnc23)o1 [1-017]	5 (Herbicidal ratio of 90% or more (almost completely withered))	–
COc1ccc(-c2nnc3c(C(=O)Nc4nnc(C)o4)ccc(C(F)(F)F)n23)cc1 [1-016]	5 (Herbicidal ratio of 90% or more (almost completely withered))	–
Cc1nnc(NC(=O)c2ccc(C(F)(F)F)n3c(C(C)C)nnc23)o1 [1-004, 3-Isopropyl-N-(5-methyl-1,3,4-oxadiazol-2-yl)-5-(trifluoromethyl)-[1,2,4]triazolo[4,3-a]pyridine-8-carboxamide]	4 (Herbicidal ratio of 70% or more and less than 90%)	melting point: 176 to 178 °C
Cc1nnc(NC(=O)c2ccc(C(F)(F)F)n3c(C4=NOC(C)(C)C4)nnc23)o1 [1-029]	5 (Herbicidal ratio of 90% or more (almost completely withered))	–
Cc1cc(C(=O)Nc2nnnn2C)c2nnc(C(C)C)n2c1C(F)(F)F [2-050]	–	N (Amaranthus retroflexus) herbicidal effect grade (Amaranthus retroflexus; 192 g/ha): 2 (Herbicidal ratio of 20% or more and less than 40%)
Cc1nnc(NC(=O)c2ccc(C(F)(F)F)n3c(CS(C)(=O)=O)nnc23)o1 [1-037]	5 (Herbicidal ratio of 90% or more (almost completely withered))	–
Cc1nnc(NC(=O)c2ccc(C(F)(F)F)n3c(-c4ccc(F)cc4)nnc23)o1 [1-044]	5 (Herbicidal ratio of 90% or more (almost completely withered))	–
Cc1nnc(NC(=O)c2ccc(C(F)(F)F)n3c(Br)nnc23)o1 [1-014]	5 (Herbicidal ratio of 90% or more (almost completely withered))	–
COCc1nnc2c(C(=O)Nc3nnc(C)o3)ccc(C(F)(F)F)n12 [1-015]	5 (Herbicidal ratio of 90% or more (almost completely withered))	–
CC(C)c1nnc2c(C(=O)Nc3nnco3)ccc(C(F)(F)F)n12 [1-050]	5 (Herbicidal ratio of 90% or more (almost completely withered))	–
CC[S+]([O-])c1nnc2c(C(=O)Nc3nnc(C)o3)ccc(C(F)(F)F)n12 (centres unmarked) [1-034]	5 (Herbicidal ratio of 90% or more (almost completely withered))	–
CCS(=O)(=O)c1nnc2c(C(=O)Nc3nnc(C)o3)ccc(C(F)(F)F)n12 [1-041]	5 (Herbicidal ratio of 90% or more (almost completely withered))	–
